This is an account of results in US20100316677A1, “USE OF BAMBOO LEAF TOTAL FLAVONES IN THE PREPARATION OF MEDICINE AND HEALTH FOOD FOR PREVENTION AND TREATMENT OF PROSTATIC DISEASES” (ZHEJIANG UNIVERSITY (HANGZHOU) LEAF BIO-TECHNOLOGY CO., LTD., priority 2003, published 2010).

Experiment [1] deals with growth of the prostate and accessorial sex organs. In words: growth of the prostate and the accessorial sex organs of young mice. Format: in vivo, ICR young male mice. The conditions noted are these: 0.5 mg/kg sc once every 3 days, 5 times. As for the experimental part:
Assign ICR young male mice, body weight 10-12 g, into groups according to their body weight, 10-11 mice in each group: (1) controlled group: water of equal volume, 0.8 mL/20 g, ig; (2) estradiol group: estradiol 0.5 mg/kg, sc, once every 3 days, for 5 times; (3) high-dose group: EOB-f01 400 mg/kg, ig; (4) moderate-dose group: EOB-f01 200 mg/kg, ig; (5) low-dose group: EOB-f01 100 mg/kg, ig. Once per day, for 14 days. On the fifteenth day, sacrifice the mice, anatomize and weigh the abdominal, side, and back parts of the prostate, and seminal vesicle, testis, and elevator ani muscle.

For experiment [2], the system named is prostatic hyperplasia caused by testosterone propionate. In words: prostatic hyperplasia caused by testosterone propionate. It counts as in vivo, ICR mice. Conditions: testosterone propionate mice, 0.5 mg/kg sc once every 3 days, 5 times. The protocol: Randomly assign ICR mice, male, body weight 18-21g, into 7 groups, 10-11 mice in each group: (1) controlled group: water of equal volume, 0.8 mL/20 g, ig; (2) model group: 0.8 mL/20 g water of equal volume, ig; (3) estradiol group: estradiol 0.5 mg/kg, sc, once every 3 days, for 5 times; (4) high-dose group: EOB-f01 400 mg/kg ig; (5) moderate-dose group: EOB-f01 200 mg/kg, ig; (6) low-dose group: EOB-f01 100 mg/kg, ig. Once per day, for 14 days. Except the controlled group (1), various groups (2)-(6) with testosterone propionate 5 mg/mL per day, sc, for 14 d. On the fifteenth day, sacrifice the mice, anatomize them, take and weigh the abdominal, side, and back parts of the prostate, and evaluate anti-hyperplasia effects of EOB-f01.

Experiment [3] deals with prostatitis caused by carrageenan. In words: prostatitis caused by carrageenan (prostate weight, histopathology). It counts as in vivo, SD male rats. The conditions noted are these: carrageenan rats. As for the experimental part: […] Give the rats through gastric irrigation once per day, for 7 days (indomethacin, only once prior to operation), and begin the operation in 0.5 h after the final dose.
Conduct anesthesia for the rats, then fix them in supine position, shear off hair at their abdomen, and sterilized by iodine tinture; under sterilized condition, cut 1.5 cm at the center of their abdomen, expose the abdominal part of prostate, inject rats in (2)-(6) groups with 1% carrageenan saline, 0.02 mL/rat, with No. 4.5 syringe, immediately return the prostate to the abdominal cavity, add 1 drop of penicillin in the abdominal cavity, and immediately suture the abdominal cavity by two-layer ways. Replace carrageenan with saline 0.02 mL/rat, for rat in the controlled group (1), and conduct pseudo-operation. In 4 h after operation, sacrifice the rats, anatomize and separate each part of the prostate, weigh wet weight, and compare swelling extents between the dose groups and the model group. Take the abdominal part of the prostate of rats, fix with 10% formalin, dehydrate routinely, imbedded with paraffin, slice up, conduct HE staining, and observe pathological changes under a microscope.
Observation criteria for pathology of prostatic tissue from rats of each group: (1) Score of stroma swelling or blood vessel hyperemia: no stroma swelling or blood vessel hyperemia, 0; mild stroma swelling or blood vessel hyperemia, 1; moderate stroma swelling or blood vessel hyperemia, 2; severe stroma swelling or blood vessel hyperemia, 3; (2) Score of infiltration of inflammatory cells: no stroma inflammatory cells, 0; small amount of stroma inflammatory cells, 1; moderate amount of stroma inflammatory cells, 2; high amount of stroma inflammatory cells, 3; stroma diffuse inflammatory cells, 4.

Experiment [4] relates to swelling of ear auricle caused by xylene. As to the kind of experiment: swelling of ear auricle of mice caused by xylene. Format: in vivo. Conditions: 10 mg/kg ig once, blank control 11.4 ± 4.9. The protocol:
Assign the mice into 5 groups according to their body weight, 10 mice in each group, as 2.1 section. Give the mice once per day through gastric irrigation (ig), for 7 days (indomethacin, given only once); in 30 min after the final dose, smear the right ear of the mice with xylene, 0.05 ml/mouse, cause inflammation, sacrifice them in 15 min, shear away their left and right ears, punch down their left and right ear slice with 9 mm trephine, and weigh them, taking the difference of weights between left and right ear slices as the swelling rate. Judge the effects compared with those of the controlled groups.

Experiment [5] relates to swelling of ear auricle caused by croton oil. In words: swelling of ear auricle of mice caused by croton oil. Format: in vivo. The conditions noted are these: 10 mg/kg ig once, blank control 19.8 ± 2.9. As for the experimental part: Randomly assign mice into 5 groups, 12 mice in each group, as follows: (1) Blank-controlled group: saline of equal volume, 0.8 mL/20 g; (2) Positive-controlled group: indomethacin 10 mg/kg; (3) High-dose group: 10 mg/mL EOB-f01, 400 mg/kg; (4) moderate-dose group: 5 mg/mL EOB-f01, 200 mg/kg; (5) Low-dose group: 2.5 mg/mL EOB-f01, 100 mg/kg. The animals received the administration through gastric irrigation (ig). once per day for 7 continuous days (for indomethacin, only once); in 1 h after the final dose, smear the right ear of the mice with 2% croton oil, 0.02 ml/mouse, cause inflammation, sacrifice them after 4 h, shear away their left and right ears, punch down their left and right ear slice with 9 mm trephine, and weigh them, taking the difference of weights between left and right ear slices as the swelling rate.

Consider `C[C@]12CC[C@@H]3c4ccc(O)cc4CC[C@H]3[C@@H]1CC[C@@H]2O` [Estradiol, estradiol], for which the “Prostate weights, Back part” value worked out at 1.1 ± 0.9 mg in experiment [1] (blank control 4.2 ± 1.5) and 5.1 ± 1.6 mg in experiment [2] (model 7.8 ± 1.8). The “Prostate weights, Abdominal part” value in experiment [1] (blank control 6.7 ± 1.1) is on record as 1.7 ± 0.5 mg; in experiment [2] (model 11.3 ± 2.8), 7.0 ± 1.7 mg. Moreover, the figures for the “Prostate weights, Side part” value in experiment [1] (blank control 9.6 ± 3.3) and in experiment [2] (model 23.6 ± 6.2) were 1.5 ± 1.3 mg and 15.1 ± 2.7 mg, respectively. For the same molecule, in experiment [1] (organ weight, blank control 34.1 ± 11.3), the Seminal vesicle came out at 7.3 ± 2.5 mg. Also, in experiment [1] (organ weight, blank control 42.5 ± 10.6), the Elevator ani muscle is on record as 14.1 ± 3.3 mg. In experiment [1] (organ weight, blank control 151.3 ± 28.2), this molecule registered a Testis of 58.0 ± 12.8 mg.

On to `COc1ccc2c(c1)c(CC(=O)O)c(C)n2C(=O)c1ccc(Cl)cc1` [Indomethacin, indomethacin], for which the “Prostate weights, Side part” value in experiment [3] (12 mg/kg ig once, model 73.3 ± 17.3) is on record as 62.0 ± 12.3 mg. For the same molecule, the “Prostate weights, Back part” value in experiment [3] (12 mg/kg ig once, model 122.1 ± 23.3) is on record as 128.6 ± 20.9 mg. For the same molecule, the “Prostate weights, Abdominal part” value in experiment [3] (12 mg/kg ig once, model 466.5 ± 79.1) amounted to 358.1 ± 79.2 mg. Moreover, the “Degree of dilation or swelling of stroma blood vessels” value in experiment [3] (score 0-3, abdominal part of prostate, 10 mg/kg, model 2.6 ± 0.5) stood at 2.1 ± 2.0. For the same molecule, in experiment [3] (score 0-4, abdominal part of prostate, 10 mg/kg, model 2.6 ± 1.3), the “Degree of infiltration of neutrophils” value is 2.2 ± 1.3. In addition, the “Swelling rate of ear auricle” value in experiment [4] turned out to be 6.4 ± 2.3 mg; in experiment [5], 14.8 ± 5.1 mg.
